# Assay results reported in patent publication US11528908B2, “Acaricide and application thereof” (priority 2018, dated 2022).
# What was measured:
# mites = assay: Acaricidal effect of ethoxy-modified trisiloxane alone (statement in summary); settings: content 0.667 g/L to 1.0 g/L
# [1] = test system: adult citrus red mites (Panonychus citri Mcgregor); assay: Glass slide method, mortality of adult mites (Table 7); assay type: in vivo
# Experimental: By using the glass slide method, the effects of the 1500-fold diluted solution and the 3000-fold diluted solution of the acaricide prepared in embodiment 3, the 1500-fold diluted solution of the ethoxy-modified trisiloxane, and the 1500-fold diluted solution of the solid sodium dioctyl sulfosuccinate prepared in embodiment 1 on the adult citrus red mites (Panonychus citri Mcgregor) were tested. Each treatment group had 50 citrus red mites, and the measurement was repeated 4 times, with water as a control.
Compound,damage to plants (mites),acaricidal rate for 72 hours (mites; high concentration),"Mortality after 10 minutes ([1]; 1500× dilution, 10 minutes after spraying)","Mortality after 72 hours ([1]; 1500× dilution, 72 hours after spraying)",Mortality after 10 minutes ([1]; in vivo),Mortality after 72 hours ([1]; in vivo)
ethoxy-modified trisiloxane,serious pesticide damage,about 30%,15.42dD %,28.84dD %,,
CCCCCCCCOC(=O)CC(C(=O)OCCCCCCCC)S(=O)(=O)O.[Na] (stereo not drawn) [sodium dioctyl sulfosuccinate],,,,,20.35cC %,62.45cC %
